Experimental data published in patent US6468537B1, “Localization of major peptide autoepitopes for nucleosome specific T cells of systemic lupus erythematosus” (The Board of Trustees of Northwestern University, priority 1999, dated 2002).

Tests used:
[1] = test system: splenic T cells of pre-nephritic SNF1 mice; conditions: cited from earlier work
[2] = test system: anti-DNA autoantibodies of lupus; conditions: cited from earlier work
CD4+ T cells = assay: Helper assay: CD4+ T cells from peptide-injected mice co-cultured with B cells from unmanipulated SNF1 mice; assay type: cell-based, mouse; conditions: for reduction of anti-ssDNA antibody production relative to control group / reduction of anti-dsDNA antibody production compared with control group: T cells from treated mice + B cells from unmanipulated mice; for reduction of anti-dsDNA antibody production compared with control group: 7 days; for increase in help for anti-dsDNA antibody production following addition of rIL-2: rIL-2 added at beginning of 7-day culture
Text: (§1) Levels of IgG class autoantibodies specific for single-stranded DNA (ssDNA), double-stranded DNA (dsDNA), histones, and nucleosomes (i.e. histone-DNA complexes), in culture supernatants or serum, were estimated using an enzyme-linked immunosorbent assay (ELISA). Anti-DNA mAbs 564 and 205 were used to generate standard curves as previously described (Mohan et al., 1993, J. Exp. Med. 177:1367; Kaliyaperumal et al., 1996, J. Exp. Med. 183:2459; Mohan et al., 1995, J. Immunol. 154:1470; Adams et al., 1991, Proc. Natl. Acad. Sci. USA 88:11271). Sera were diluted 1:400 and heat-inactivated before use according to standard procedures. Sera from normal SWR mice were used as the negative control. Total polyclonal IgG levels were also measured by ELISA as previously described (Mohan et al., 1993, J. Exp. Med. 177:1367; Mohan et al., 1995, J. Immunol. 154:1470; Adams et al., 1991, Proc. Natl. Acad. Sci. USA 88:11271).
(§2) T-cells from peptide-treated mice used in the short-term experiments were co-cultured with splenic B cells from unmanipulated mice. Conversely, T cells from unmanipulated SNF1 mice (i.e. control mice) were co-cultured with splenic B cells from tolerized (i.e. peptide-injected) mice. Each of the cell types was seeded in 24-well plates at an initial concentration of 2.5×10^6 cells per well. Cultures were maintained for 7 days, as previously described (Datta et al., 1987, J. Exp. Med. 165:1252; Sainis and Datta, 1988, J. Immunol. 140:2215). B cells from unmanipulated or tolerized animals were cultured alone to measure baseline autoantibody production. Culture supernatants were collected, freeze-thawed, and assayed by ELISA for antibodies against ssDNA, dsDNA, histones and nucleosomes. For studies involving stimulation of B cells by soluble CD40 ligand, CD40L-CD8 fusion protein (Wortis et al., 1995, Proc. Natl. Acad. Sci. USA 92:3348) was added to either the co-culture wells or the wells with B cells alone and maintained in the medium for the entire 7-day culture period.

SNF1 mice [3] = assay: Chronic therapy of established glomerulonephritis with nucleosomal peptides; assay type: in vivo, mouse; conditions: for survival: by 26 months age; for mice alive: two months after start of treatment (all controls dead), 300 micrograms i.p. monthly, 18-month old mice
Protocol: Six mice per group were injected intraperitoneally once each month with either a saline solution or a peptide solution comprising saline and 300 micrograms of one of the identified peptides. The endpoint of these experiments was the development of moribund state due to renal failure.

B cells [4] = assay: Helper assay: B cells from peptide-injected mice co-cultured with CD4+ T cells from unmanipulated SNF1 mice; assay type: cell-based, mouse
Text: as §1, §2

B cells [5] = assay: Stimulation of purified B cells from peptide-injected mice (anti-Ig (Fab')2, rIL-4, CD40L, LPS); assay type: cell-based, mouse
Text: as §1, §2

SNF1 mice [6] = assay: Short-term tolerance experiments: grading of lupus nephritis at sacrifice; assay type: in vivo, mouse; conditions: short-term batch, at sacrifice two weeks after last injection
Protocol: Short-term experiments were conducted to test the early immunological consequences of tolerance therapy. Twelve week old SNF1 mice were injected once a week for four weeks with either a saline solution or a peptide solution comprising saline and 300 micrograms of one of the above described peptides. Mice were sacrificed at two weeks after the last injection. Presence of autoimmune T and B cells was analyzed and renal lesions were graded.

HLA-DR = conditions: cited from earlier work
SNF1 mice [7] = assay: IgG anti-nuclear autoantibody and total IgG levels in sera of peptide-injected mice (ELISA); assay type: in vivo, mouse; conditions: sera 1:400
Protocol: (§3) Long-term experiments used 12 week-old, autoimmune, but pre-nephritic SNF1 female mice. Nine mice per peptide test group were injected intravenously with either a saline (solution) or a peptide solution comprising saline and 300 micrograms of one of H2B10-33, H416-39, and H471-94. Each mouse received three subsequent injections of either the saline solution or one of the peptide solutions at two-week intervals. The mice were monitored weekly for proteinuria using an Albustix kit (VWR Scientific, Chicago, Ill.), and sacrificed upon the development of persistent proteinuria. Persistent protenuria was identified as an amount of protein in urine that is equivalent to or greater than 300 milligrams per deciliter, and is a primary indication of severe kidney disease and damage associated with nephritis. Sera were collected from each mouse and the IgG anti-nuclear autoantibodies determined. Blood urea nitrogen (BUN) was measured by Azostix (Miles, Ekhart, Ind.). Immune complex deposition and glomerulonephritis in the kidney were detected by staining with Hematoxylin and Eosin and anti-mouse Ig. These procedures were carried out as previously described (Mohan et al., 1993, J. Exp. Med. 177:1367; Mohan et al., 1995, J. Immunol. 154:1470; Eastcott et al., 1983, J. Immunol. 131:2232; Adams et al., 1991, Proc. Natl. Acad. Sci. USA 88:11271; Kalled et al., 1998, J. Immunol. 160:2158; Gaynor et al., 1997, Proc. Natl. Acad. Sci. USA 94:1955).
as §1

SNF1 mice [8] = assay: Brief therapy with nucleosomal histone peptides (long-term experiments): incidence of severe nephritis; assay type: in vivo, mouse
Protocol: as §3

[9] = at 36 weeks of age, control 26±3.2
[10] = at the start of treatment (12 weeks), control 5.5±0.3
[11] = at 28 weeks of age, 300 micrograms i.v., four injections at two-week intervals from 12 weeks
[12] = at 36-38 weeks of age, control 88.8%
[13] = rIL-2 added, not significant relative to control

Substance | reduction of anti-ssDNA antibody production relative to control group (CD4+ T cells) | reduction of anti-dsDNA antibody production compared with control group (CD4+ T cells) | increase in help for anti-dsDNA antibody production following addition of rIL-2 (CD4+ T cells) | survival (SNF1 mice [3]) | mice alive (SNF1 mice [3]) | production of anti-nucleosome antibodies relative to control group (B cells [4]) | antibody production by B cells stimulated with anti-Ig (Fab')2 in presence or absence of rIL-4 (B cells [5]) | binding to HLA-DR (HLA-DR) | serum anti-dsDNA antibody level (SNF1 mice [7]; [9]) | serum anti-dsDNA antibody level (SNF1 mice [7]; [10]) | incidence of severe nephritis (SNF1 mice [8]; [11]) | incidence of severe nephritis (SNF1 mice [8]; [12]) | other results
H385-102: epitope in nucleosomal core histone H3, amino acid positions 85-102 (QSSAVMALQEACEAYLVG; UniProt P68431 86-103, looked up, fragment) |  |  |  |  |  |  |  |  |  |  |  |  | response of splenic T cells [1]: spontaneously responded; binding by anti-DNA autoantibodies [2]: also bound by spontaneously arising anti-DNA autoantibodies of lupus
H471-94: histone 4 protein (H4) amino acids 71-94 | not significant | approximately 50% | did not exhibit any increase | all of the H471-94 group mice had succumbed to renal disease | 66.6% | remained significantly low | could be stimulated to produce autoantibodies at levels similar to those of the control mice | have actually been shown to bind HLA-DR | 17.1±2.7 units | 5.4±1.1 units | 33.3% | 33.3% | production of anti-histone antibodies relative to control group (B cells [4]): remained significantly low; Percent Incidence, Grading of Lupus Nephritis 2+ (SNF1 mice [6]): 66.6; Percent Incidence, Grading of Lupus Nephritis 3+ (SNF1 mice [6]): 33.3
H416-39: nucleosomal histone peptide of histone 4 protein (H4), amino acid positions 16-39 | approximately 55% | approximately 50% | 35% | all of the H416-39 group mice remained alive | none of the mice in H416-39 group had died | reduced by three fold | did not respond by increasing antibody production | have actually been shown to bind HLA-DR | 13.0±4.0 units | 9.0±2.1 units | did not develop disease | 11.1% | increase in anti-nucleosome antibodies following addition of rIL-2 (CD4+ T cells; [13]): 20%; increase in anti-ssDNA antibodies following addition of rIL-2 (CD4+ T cells; [13]): 30%; animals exhibiting a reduction in proteinuria levels (SNF1 mice [3]; during the course of the experiment): 66.6%; proteinuria level after reduction (SNF1 mice [3]; reduced from 300-1000 milligrams per deciliter): less than 100 milligrams per deciliter; ability of B cells to produce IgG autoantibodies in presence of T helper cells (B cells [4]): diminished levels of all autoantibodies; reduction of anti-histone antibody production relative to control group (B cells [4]): approximately 4 fold; level of anti-dsDNA antibodies produced by B cells (B cells [4]; control 160±18.5): 45±10.1 units per deciliter; production of anti-ssDNA antibodies by B cells (B cells [4]; control 170±10.9 units per deciliter): 60±7.9 units; antibody production by B cells with addition of CD40L and rIL-4 (B cells [5]): did not produce significant amounts of antibodies; Percent Incidence, Grading of Lupus Nephritis 0 (SNF1 mice [6]): 33.3; Percent Incidence, Grading of Lupus Nephritis 1+ (SNF1 mice [6]): 66.6; incidence of severe nephritis (SNF1 mice [8]; at 54 weeks of age): 55.5%
